Series [1] has as its target T1, C-terminal catalytic domain of MALT1 (amino acid residues 329-824) (Homo sapiens, UniProt Q9UDY8).
T1 construct: C-terminal catalytic domain of MALT1 (amino acid residues 329-824)
T1 sequence (Q9UDY8 329-824): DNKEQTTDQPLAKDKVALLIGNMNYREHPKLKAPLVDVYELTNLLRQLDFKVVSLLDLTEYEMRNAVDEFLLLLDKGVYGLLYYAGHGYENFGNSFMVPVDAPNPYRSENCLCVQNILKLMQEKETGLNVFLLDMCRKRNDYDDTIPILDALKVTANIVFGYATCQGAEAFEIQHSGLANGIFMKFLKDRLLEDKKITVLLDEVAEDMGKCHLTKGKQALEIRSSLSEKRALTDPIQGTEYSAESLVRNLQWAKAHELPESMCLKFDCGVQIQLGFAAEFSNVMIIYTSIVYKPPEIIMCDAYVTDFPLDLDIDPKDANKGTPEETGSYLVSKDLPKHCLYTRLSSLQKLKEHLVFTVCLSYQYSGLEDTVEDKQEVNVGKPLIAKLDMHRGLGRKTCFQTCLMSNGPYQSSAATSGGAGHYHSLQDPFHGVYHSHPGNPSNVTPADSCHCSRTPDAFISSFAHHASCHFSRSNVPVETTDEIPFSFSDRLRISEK
The series is described as follows: MALT1 protease inhibitory activity (enzyme activity inhibition assay, fluorogenic substrate). To be noted: substrate Ac-Leu-Arg-Ser-Arg-AMC 50 µM; 30°C for 2 hours; fluorescence. Type of series: biochemical. The procedure:
To evaluate the enzyme inhibitory activity of a test substance against MALT1, an enzyme activity inhibition assay was conducted using the C-terminal catalytic domain of MALT1 (amino acid residues 329-824).
A test substance was prepared at a concentration of 10 mM in dimethyl sulfoxide (DMSO) and further diluted with DMSO to obtain final concentrations of 1000, 100, 10, 1, and 0.1 µM. The solutions were further diluted 25-fold with an assay buffer to prepare final test substance solutions. The composition of the assay buffer was 200 mM Tris/HCl HEPES (pH 7.5), 0.8 M Na citrate, 100 µM DTT, and 0.05% CHAPS.
The test substance solution was added to a 384-well black plate (#6007270, PerkinElmer) in an amount of 5 µL per well (n = 2; final concentrations of 10000, 1000, 100, 10, 1, and 0.1 nM), followed by the addition of 10 µL of MALT1 enzyme and finally 5 µL of a substrate solution (Ac-Leu-Arg-Ser-Arg-AMC, Peptide Institute, Inc.; final concentration in the reaction mixture: 50 µM), and after stirring, the mixture was allowed to react at 30°C for 2 hours. Fluorescence (excitation: 380 nm, emission: 460 nm) was detected using a microplate reader (EnVision, PerkinElmer).
Using the measurement data, non-linear regression analysis based on a 2-parameter logistic model was performed with Spotfire (PerkinElmer) to calculate IC50.

Series [2] deals with HEK293/API2-MALT1/NF-κB reporter cells. The series is described as follows: Inhibition of reporter activity in HEK293/API2-MALT1/NF-κB reporter cells. Type of series: cell-based. To be noted: Homo sapiens, 24 hours with test substance, One-glo luminescence. The procedure:
The API2-MALT1 fusion protein, expressed in MALT lymphoma, is known to constitutively activate the NF-κB pathway. To evaluate the inhibitory effect of the test substance on the NF-κB pathway in cells, a reporter activity inhibition test was conducted using HEK293/API2-MALT1/NF-κB reporter cells.
The test substance was prepared at a concentration of 10 mM in dimethyl sulfoxide (DMSO) and further diluted with DMSO to each of concentrations of 1000, 300, 100, and 10 µM. The solutions were further diluted 100-fold with DMEM medium containing 10% FBS to prepare test substance solutions.
HEK293/API2-MALT1/NF-κB reporter cells and 293T/CMV reporter cells (used as a negative control) were cultured in DMEM medium containing 10% FBS. Into a 384-well plate (#781080, Greiner), 6,000 cells were seeded in 30 µL per well, and after culturing for 24 hours, 3.3 µL of the adjusted test substance solution was added thereto (final concentrations: 10,000, 1,000, 100, and 10 nM). After culturing for 24 hours at 37°C in a 5% CO2 incubator, 33 µL of One-glo (Promega) was added to each well. After a 5-minute incubation at room temperature, luminescence was detected using a microplate reader (EnVision, PerkinElmer).
Using the measurement data, non-linear regression analysis was performed with the SAS system (SAS Institute Inc.) to estimate IC50.

Series [3] relates to OCI-Ly3 cell lines. The series is described as follows: Proliferation inhibition test, ABC-DLBCL cell line OCI-Ly3. In kind it is cell-based. To be noted: Homo sapiens; OCI-Ly3 (ABC-DLBCL, NF-κB pathway-dependent); 96 hours; Cell Counting Kit-8; read-out: Proliferation inhibitory activity against OCI-Ly3 IC50. The procedure:
(§1) In ABC-DLBCL cell lines, the NF-κB pathway is constitutively activated due to mutations in the B-cell receptor pathway. To evaluate the proliferation inhibitory activity associated with the MALT1 inhibitory activity of the test substance, a proliferation inhibition test was conducted using ABC-DLBCL cell lines.
(§2) The test substance was prepared at a concentration of 10 mM in dimethyl sulfoxide (DMSO) and further diluted with DMSO to each of concentrations of 3,000, 1,000, 300, 100, 30, and 10 µM. The solutions were further diluted 100-fold with IMDM medium containing 10% FBS to prepare test substance solutions.
(§3) OCI-Ly3 cell lines (ABC-DLBCL, NF-κB pathway-dependent) were cultured in IMDM containing 10% FBS, and SU-DHL-4 cell lines (GCB-DLBCL, NF-κB pathway-independent, used as a negative control) were cultured in RPMI-1640 containing 10% FBS. Into a 96-well plate, 2,000 cells of the OCI-Ly3 cell line and 4,000 cells of the SU-DHL-4 cell line were seeded in 100 µL per well, and 11 µL of the adjusted test substance solution was added thereto (final concentrations: 10,000, 3,000, 1,000, 300, 100, 30, and 10 nM). After 96 hours of incubation at 37°C in a 5% CO2 incubator, 10 µL of Cell Counting Kit-8 (Dojindo Laboratories) was added to each well. After 4 hours of incubation at 37°C, absorbance at 450 nm was detected using a microplate reader (EnVision, PerkinElmer).
(§4) Using the measurement data, non-linear regression analysis based on a 2-parameter logistic model was performed with Spotfire (PerkinElmer) to estimate IC50 values.
Background: Tetrazolium assays rely on reduction of a dye to a coloured formazan, in cell work by metabolically active cells.

The subject of series [4] is SU-DHL-4 cell lines. Kind of series: Proliferation inhibition test, GCB-DLBCL cell line SU-DHL-4 (negative control line). Type of series: cell-based. To be noted: Homo sapiens; SU-DHL-4 (GCB-DLBCL, NF-κB pathway-independent, negative control); 96 hours; Cell Counting Kit-8; read-out: Proliferation inhibitory activity against SU-DHL-4 IC50. The procedure:
as §1, §2, §3, §4

The nature of series [5]: Central nervous system (CNS) penetration study in mice. In kind it is in vivo. To be noted: female, BALB/cCrSlc, mouse, ip, 30 mg/kg intraperitoneally, three hours later, cerebrum and plasma by LC-MS/MS, read-out: Brain-to-plasma concentration ratio (Kp value). The procedure:
To evaluate the central nervous system (CNS) penetration of a test substance, a central nervous system penetration study was conducted using mice.
Six-week-old female BALB/cCrSlc mice (Japan SLC) were used. The test substance suspended in 0.5% methylcellulose was intraperitoneally administered to mice at a dose of 30 mg/kg. Three hours later, blood was collected from the abdominal vena cava under isoflurane anesthesia, and plasma was obtained by centrifugation. After exsanguination from the abdominal vena cava, the cerebrum was collected.
The drug concentrations of the collected plasma and cerebrum were measured by LC-MS/MS. To determine the brain penetration of the drug, the brain-to-plasma concentration ratio (Kp value) was calculated.

pIC50: −log10 of the molar value.

`C[C@@H]1CC(C(=O)c2cn(C)c3nc(-n4nccn4)c(Cl)cc23)C[C@@H](C)N1c1ncc(F)cc1I` (stereo partly drawn) [Example 2, [5-chloro-1-methyl-6-(2H-1,2,3-triazol-2-yl)-1H-pyrrolo[2,3-b]pyridin-3-yl][(2R,6R)-1-(5-fluoro-3-iodopyridin-2-yl)-2,6-dimethylpiperidin-4-yl]methanone]: the pIC50 in series [1] is 7.74; in series [2], 7.22; in series [3] it was 6.52; in series [4], 5.14. Moreover, the Kp at 3 h in series [5] is 1.2.

With `Cn1cc(C(=O)c2cnn(-c3cccc4nnsc34)c2C(F)(F)F)c2cc(Cl)c(-n3nccn3)nc21` [Example 28, [1-(1,2,3-benzothiadiazol-7-yl)-5-(trifluoromethyl)-1H-pyrazol-4-yl][5-chloro-1-methyl-6-(2H-1,2,3-triazol-2-yl)-1H-pyrrolo[2,3-b]pyridin-3-yl]methanone], the pIC50 in series [1] is 7.62; in series [2], 6.36; in series [3], 6.21; in series [4] it was under 5.00. In addition, in series [5], the Kp at 3 h was 1.75.

For the compound `CCCn1cc(C(=O)c2cnn(-c3cncc4c(F)cccc34)c2C(F)(F)F)c2cc(Cl)c(-c3ncccn3)nc21` [Example 26, [5-chloro-1-propyl-6-(pyrimidin-2-yl)-1H-pyrrolo[2,3-b]pyridin-3-yl][1-(8-fluoroisoquinolin-4-yl)-5-(trifluoromethyl)-1H-pyrazol-4-yl]methanone], the pIC50 is 7.29 in series [1], 6.96 in series [2], 6.85 in series [3] and 5.85 in series [4]. Besides, in series [5], the Kp at 3 h was found to be 0.27.

`CCn1cc(C(=O)C2C[C@@H](C)N(c3ncc(F)cc3I)[C@H](C)C2)c2cc(Cl)c(-n3nccn3)nc21` (stereo partly drawn) [Example 14, [5-chloro-1-ethyl-6-(2H-1,2,3-triazol-2-yl)-1H-pyrrolo[2,3-b]pyridin-3-yl][(2R,6R)-1-(5-fluoro-3-iodopyridin-2-yl)-2,6-dimethylpiperidin-4-yl]methanone]: the pIC50 was 7.24 in series [1], 7.15 in series [2], 6.33 in series [3] and 5.07 in series [4]. Also, in series [5], the Kp at 3 h is 0.74.

As for `C[C@@H]1CC(C(=O)c2cn(C3COC3)c3nc(-c4ncccn4)c(Cl)cc23)C[C@@H](C)N1c1ncc(F)cc1I` (stereo partly drawn) [Example 10, [5-chloro-1-(oxetan-3-yl)-6-(pyrimidin-2-yl)-1H-pyrrolo[2,3-b]pyridin-3-yl][(2R,6R)-1-(5-fluoro-3-iodopyridin-2-yl)-2,6-dimethylpiperidin-4-yl]methanone], the pIC50 in series [1] was 7.17; in series [2], 6.85; in series [3] it was 6.36; in series [4] it was 5.22. Also, in series [5], the Kp at 3 h stood at 1.7.

Take `CCn1cc(C(=O)c2cnn(-c3cncc4c(F)cccc34)c2C(F)(F)F)c2cc(Cl)c(-n3nccn3)nc21` [Example 7, [5-chloro-1-ethyl-6-(2H-1,2,3-triazol-2-yl)-1H-pyrrolo[2,3-b]pyridin-3-yl][1-(8-fluoroisoquinolin-4-yl)-5-(trifluoromethyl)-1H-pyrazol-4-yl]methanone]: the pIC50 in series [1] was 7.60; in series [2], 6.82; in series [3], 6.89; in series [4], 5.49. The Kp at 3 h in series [5] was 0.52.

`Cn1cc(C(=O)c2cnn(-c3cncc4c(F)cccc34)c2C(F)(F)F)c2cc(Cl)c(-c3ncccn3)nc21` [Example 12, [5-chloro-1-methyl-6-(pyrimidin-2-yl)-1H-pyrrolo[2,3-b]pyridin-3-yl][1-(8-fluoroisoquinolin-4-yl)-5-(trifluoromethyl)-1H-pyrazol-4-yl]methanone]: the pIC50 in series [1] was 7.96; in series [2], 7.07; in series [3], 6.68; in series [4], 5.72. For the same compound, in series [5], the Kp at 3 h was found to be 0.66.

As for `Cn1cc(C(=O)c2cnn(-c3cccc4nnsc34)c2C(F)(F)F)c2cc(Cl)c(-c3ncccn3)nc21` [Example 29, [1-(1,2,3-benzothiadiazol-7-yl)-5-(trifluoromethyl)-1H-pyrazol-4-yl][5-chloro-1-methyl-6-(pyrimidin-2-yl)-1H-pyrrolo[2,3-b]pyridin-3-yl]methanone], the pIC50 in series [1] was 7.77; in series [2] it was 6.66; in series [3], 6.00; in series [4], under 5.00. Also, the Kp at 3 h in series [5] was 0.98.

Turning to `C[C@@H]1CC(C(=O)c2cn(C3CC3)c3nc(-n4nccn4)c(Cl)cc23)C[C@@H](C)N1c1ncc(F)cc1I` (stereo partly drawn) [Example 16, [5-chloro-1-cyclopropyl-6-(2H-1,2,3-triazol-2-yl)-1H-pyrrolo[2,3-b]pyridin-3-yl][(2R,6R)-1-(5-fluoro-3-iodopyridin-2-yl)-2,6-dimethylpiperidin-4-yl]methanone], the pIC50 is 6.51 in series [1], 6.14 in series [3] and 5.01 in series [4]. For the same compound, the Kp at 3 h in series [5] was 0.28.

These data come from patent EP4772507A1, “AZAINDOLE COMPOUND AND MEDICAL DRUG” (Nippon Shinyaku Co., Ltd., priority 2023, dated 2025).
